Reference: patent publication US20080045514A1 (Cytovia, Inc., priority 2006, published 2008)
Where a name gives a salt, the structure may show the parent alone.

Assays:
Type in all cases: cell-based
[1] = system: human hepatocellular carcinoma cell line SNU398; experiment: Caspase cascade activation (EC50), SNU398; conditions: Homo sapiens, SNU-398; SNU398 cells; caspase cascade activation; read-out: caspase potency (EC50) SNU398
Procedure, shortened: (§1)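 Cells in ATCC medium plus 10% FCS, seeded at 0.65×10^6 cells/mL, incubated with compound at 0.016 to 10 μM final, 48 h, 37 °C. Lysis-substrate buffer (14 μM DEVD-R110, 20 mM DTT, pH 7.2, lysolecithin) added; fluorescence read after 3 h at room temperature.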

[2] = system: human Burkitt's lymphoma cell line Namalwa; experiment: Caspase cascade activation (EC50), Namalwa; conditions: Homo sapiens, Burkitts lymphoma cell; Namalwa cells; caspase cascade activation; read-out: caspase potency (EC50) Namalwa
Procedure, shortened: as §1

[3] = system: human lymphoma cell line Raji; experiment: Caspase cascade activation (EC50), Raji; conditions: Homo sapiens, RAJI cells, read-out: caspase potency (EC50) RAJI
Experimental: (§2) Human breast cancer cell lines T-47D, human hepatocellular carcinoma cell line SNU398, human colon carcinoma cell line HCT116, human cancer cell line H1299, human Burkitt's lymphoma cell line Namalwa, human lymphoma cell line Raji, and human B cell lymphoblastoid cell line Ramos were grown according to media component mixtures designated by American Type Culture Collection+10% FCS (Invitrogen Corporation), in a 5% CO2-95% humidity incubator at 37° C. T-47D and H1299 cells were maintained at a cell density between 50 and 80% confluency at a cell density of 0.1 to 0.6×10^6 cells/mL. Cells were harvested at 600×g and resuspended at 0.65×10^6 cells/mL into appropriate media+10% FCS. An aliquot of 22.5 μL of cells was added to a well of a 384-well microtiter plate containing 2.5 μL of a 10% DMSO in RPMI-1640 media solution containing 0.16 to 100 μM of 3-(2-chlorophenyl)-6-(3,4-methylenedioxyphenyl)-7H-[1,2,4]triazolo[3,4-b][1,3,4]thiadiazine or other test compound (0.016 to 10 μM final). An aliquot of 22.5 μL of cells was added to a well of a 384-well microtiter plate containing 2.5 μL of a 10% DMSO in RPMI-1640 media solution without test compound as the control sample. The samples were mixed by agitation and then incubated at 37° C. for 48 h in a 5% CO2-95% humidity incubator. After incubation, the samples were removed from the incubator and 25 μL of a solution containing 14 μM of N—(Ac-DEVD)-N′-ethoxycarbonyl-R110 (SEQ ID No.:1) fluorogenic substrate (Cytovia, Inc.; WO99/18856), 20% sucrose (Sigma), 20 mM DTT (Sigma), 200 mM NaCl (Sigma), 40 mM Na PIPES buffer pH 7.2 (Sigma), and 500 μg/mL lysolecithin (Calbiochem) was added. The samples were mixed by agitation and incubated at room temperature. Using a fluorescent plate reader (Model SPECTRAfluor Plus, Tecan), an initial reading (T=0) was made approximately 1-2 min after addition of the substrate solution, employing excitation at 485 nm and emission at 530 nm, to determine the background fluorescence of the control sample. After the 3 h incubation, the samples were read for fluorescence as above (T=3 h). Calculation: The Relative Fluorescence Unit values (RFU) were used to calculate the sample readings as follows: RFU(T=3H)−Control RFU(T=0)=Net RFU(T=3h) The activity of caspase cascade activation was determined by the ratio of the net RFU value for 3-(2-chlorophenyl)-6-(3,4-methylenedioxyphenyl)-7H-[1,2,4]triazolo[3,4-b][1,3,4]thiadiazine (Example P) or other test compound to that of control samples. The EC50 (nM) was determined by a sigmoidal dose-response calculation (Prism 3.0, GraphPad Software Inc.).

[4] = system: human lymphoma cell line Raji; experiment: Inhibition of cell proliferation (GI50), Raji; conditions: Homo sapiens; Raji cells, 48 h, CellTiter-Glo
Experimental: (§3) Human breast cancer cell lines T-47D, human hepatocellular carcinoma cell line SNU398, human colon carcinoma cell line HCT116, human lung cancer cell line H1299, human leukemia cell line K562, human lymphoma cell line Raji, human B cell lymphoblastoid cell line Ramos, and human Burkitt's lymphoma cell line Namalwa were grown and harvested as in Example 100. An aliquot of […] of cells (4.4×10^4 cells/mL) was added to a well of a 96-well microtiter plate containing 5 μL of a 10% DMSO in RPMI-1640 media solution containing 10 nM to 100 μM of 3-(2-chlorophenyl)-6-(3,4-methylenedioxyphenyl)-7H-[1,2,4]triazolo[3,4-b][1,3,4]thiadiazine (1 nM to 10 μM final). An aliquot of 45 μL of cells was added to a well of a 96-well microtiter plate containing 5 μL of a 10% DMSO in RPMI-1640 media solution without compound as the control sample for maximal cell proliferation (LMax). The samples were mixed by agitation and then incubated at 37° C. for 48 h in a 5% CO2-95% humidity incubator. After incubation, the samples were removed from the incubator and 25 μL of CellTiter-Glo™ reagent (Promega) was added. The samples were mixed by agitation and incubated at room temperature for 10-15 min. Plates were then read using a luminescent plate reader (Model SPECTRAfluor Plus, Tecan) to give Ltest values.
(§4) The samples were mixed by agitation and then incubated at 37° C. for 0.5 h in a 5% CO2-95% humidity incubator. After incubation, the samples were removed from the incubator and 25 μL of CellTiter-Glo™ reagent (Promega) was added. The samples were mixed by agitation and incubated at […] 10-15 min at room temperature in a 5% CO2-95% humidity incubator. Fluorescence was read as above, (LStart) defining luminescence for initial cell number used as baseline in GI50 determinations.
(§5) Calculation: GI50 (dose for 50% inhibition of cell proliferation) is the concentration where [(Ltest−LStart)/(LMax−LStart)]=0.5.

[5] = system: human leukemia cell line K562; experiment: Inhibition of cell proliferation (GI50), K562; conditions: Homo sapiens; K562 cells, 48 h, CellTiter-Glo
Experimental: as §3, §4, §5

[6] = system: human B cell lymphoblastoid cell line Ramos; experiment: Inhibition of cell proliferation (GI50), Ramos; conditions: Homo sapiens; Ramos cells, 48 h, CellTiter-Glo
Experimental: as §3, §4, §5

[7] = system: human Burkitt's lymphoma cell line Namalwa; experiment: Inhibition of cell proliferation (GI50), Namalwa; conditions: Homo sapiens, Burkitts lymphoma cell; Namalwa cells, 48 h, CellTiter-Glo
Experimental: as §3, §4, §5

[8] = system: human B cell lymphoblastoid cell line Ramos; experiment: Caspase cascade activation (EC50), Ramos; conditions: Homo sapiens, RAMOS cells, read-out: caspase potency (EC50) RAMOS
Experimental: as §2

[9] = system: human colon carcinoma cell line HCT116; experiment: Caspase cascade activation (EC50), HCT116; conditions: Homo sapiens, HCT-116; HCT116 cells; caspase cascade activation; read-out: caspase potency (EC50) HCT116
Procedure, shortened: as §1

[10] = system: human colon carcinoma cell line HCT116; experiment: Inhibition of cell proliferation (GI50), HCT116; conditions: Homo sapiens; HCT 116 cells, 48 h, CellTiter-Glo
Experimental: as §3, §4, §5

[11] = system: human breast cancer cell line T-47D; experiment: Caspase cascade activation (EC50), T-47D; conditions: Homo sapiens; T47D cells; caspase cascade activation; read-out: caspase potency (EC50) T47D
Procedure, shortened: as §1

[12] = system: human cancer cell line H1299; experiment: Caspase cascade activation (EC50), H1299; conditions: NCI-H1299, H1299 cells, read-out: caspase potency (EC50) H1299
Experimental: as §2

Row | Compound | EC50 [1] | EC50 [2] | EC50 [3] | GI50 [4] | GI50 [5] | GI50 [6] | GI50 [7] | EC50 [8] | EC50 [9] | GI50 [10] | EC50 [11] | EC50 [12]
1 | COc1cc(-c2nnc3n2N=C(c2ccc(C)cc2)CS3)cc(OC)c1O [Example 13, 3-(3,5-Dimethoxy-4-hydroxyphenyl)-6-(4-methylphenyl)-7H-[1,2,4]triazolo[3,4-b][1,3,4]thiadiazine hydrobromide] | 101 nM | 73 nM | 52 nM | 97 nM | 51 nM | 50 nM | 18 nM | 69 nM | 189 nM | 165 nM | 625 nM | 
2 | COc1ccc(-c2nnc3n2N=C(c2ccc(C)cc2)CS3)cc1OC [Example 14, 3-(3,4-Dimethoxyphenyl)-6-(4-methylphenyl)-7H-[1,2,4]triazolo[3,4-b][1,3,4]thiadiazine hydrobromide] | 65 nM | 131 nM | 198 nM | 838 nM | 87 nM | 300 nM | 137 nM | 125 nM | 107 nM | 1010 nM | 396 nM | 
3 | CC(C)Oc1cccc(-c2nnc3n2N=C(c2ccc4c(c2)OCO4)CS3)c1 [Example R1, 3-(3-Isopropyloxyphenyl)-6-(3,4-methylenedioxyphenyl)-7H-[1,2,4]triazolo[3,4-b][1,3,4]thiadiazine] | 5600 nM | > 1000 nM | > 1000 nM |  |  |  |  | > 1000 nM | > 10000 nM |  | > 10000 nM | > 10000 nM
4 | CCN(CC)c1ccc(C2=Nn3c(nnc3-c3ccc(OC)cc3OC)SC2)cc1 [Example 27, 6-(4-Diethylaminophenyl)-3-(2,4-dimethoxyphenyl)-7H-[1,2,4]triazolo[3,4-b][1,3,4]thiadiazine] | 47 nM | 31 nM | 46 nM | 3 nM | 10 nM | 1 nM | 2 nM | 55 nM | 55 nM | 23 nM | 44 nM | 
5 | COc1cccc(-c2nnc3n2N=C(c2ccc4c(c2)OCO4)CS3)c1 [Example A1, 3-(3-Methoxyphenyl)-6-(3,4-methylenedioxyphenyl)-7H-[1,2,4]triazolo[3,4-b][1,3,4]thiadiazine] | 390 nM | 426 nM | 507 nM |  |  |  |  | 447 nM | 546 nM |  | 500 nM | 2490 nM
6 | CCN(CC)c1ccc(C2=Nn3c(nnc3-c3ccccc3OC)SC2)cc1 [Example 23, 6-(4-Diethylaminophenyl)-3-(2-methoxyphenyl)-7H-[1,2,4]triazolo[3,4-b][1,3,4]thiadiazine] | 18 nM | 15 nM | 27 nM | 2 nM | 2 nM | 3 nM | 7 nM | 27 nM | 26 nM | 13 nM | 32 nM | 
7 | Clc1ccc(-c2nnc3n2N=C(c2ccc4c(c2)OCO4)CS3)c(Cl)c1 [Example I1, 3-(2,4-Dichlorophenyl)-6-(3,4-methylenedioxyphenyl)-7H-[1,2,4]triazolo[3,4-b][1,3,4]thiadiazine] | 172 nM | 221 nM | 171 nM |  |  |  |  | 150 nM | 254 nM |  | 278 nM | 1380 nM
8 | COc1ccc(-c2nnc3n2N=C(c2ccc4c(c2)OCO4)CS3)cc1 [J, 3-(4-Methoxyphenyl)-6-(3,4-methylenedioxyphenyl)-7H-[1,2,4]triazolo[3,4-b][1,3,4]thiadiazine] | 2550 nM | > 10000 nM | > 1000 nM |  |  |  |  | > 1000 nM | > 10000 nM |  | 3270 nM | 2930 nM
9 | COc1cccc(-c2nnc3n2N=C(c2ccc(OC)c(OC)c2)CS3)c1 [Y, 3-(3-Methoxyphenyl)-6-(3,4-dimethoxyphenyl)-7H-[1,2,4]triazolo[3,4-b][1,3,4]thiadiazine] | 1360 nM | 558 nM | 735 nM |  |  |  |  | 593 nM | 3180 nM |  | 4130 nM | 2850 nM
10 | CCOc1ccc(C2=Nn3c(nnc3-c3cc(OC)c(OC)c(OC)c3)SC2)cc1 [Example T1, 3-(3,4,5-Trimethoxyphenyl)-6-(4-ethoxyphenyl)-7H-[1,2,4]triazolo[3,4-b][1,3,4]thiadiazine] | 519 nM | 510 nM | 656 nM |  |  |  |  | 498 nM | > 10000 nM |  | 2580 nM | 2580 nM
11 | CCOc1ccc(-c2nnc3n2N=C(c2ccc4c(c2)OCO4)CS3)cc1 [Example H2, 3-(4-Ethoxyphenyl)-6-(3,4-methylenedioxyphenyl)-7H-[1,2,4]triazolo[3,4-b][1,3,4]thiadiazine] | > 1000 nM | > 1000 nM | > 1000 nM |  |  |  |  | 542 nM | > 1000 nM |  | > 1000 nM | > 1000 nM
12 | COc1ccc(-c2nnc3n2N=C(c2cc(OC)ccc2OC)CS3)cc1 [H, 3-(4-Methoxyphenyl)-6-(2,5-dimethoxyphenyl)-7H-[1,2,4]triazolo[3,4-b][1,3,4]thiadiazine] | 1230 nM | 1180 nM | 2330 nM |  |  |  |  | 1270 nM | > 10000 nM |  | 2440 nM | 2420 nM
